# Reference: US20210315840A1, “SOLID ORAL DOSAGE FORMS OF KETAMINE DERIVATIVES” (priority 2017, published 2021)
# Tests used:
# [1] = DSC compatibility with excipients and capsule shells
# [2] = Oral bioavailability in vivo after oral gavage; conditions: mice
# [3] = system: cryopreserved hepatocytes; assay: Hepatocyte stability assay, human
# Experimental: Test compound (3 μM) was incubated with cryopreserved hepatocytes in suspension. Samples are removed at 6 time points over the course of 120 minutes and analysed by LC-MS/MS.
# [4] = target: CYP2C19 (Homo sapiens, UniProt P33261); assay: CYP inhibition assay CYP2C19; type: in vitro ADME
# Excerpt: (§1) Cytochrome P450s (CYPs) are a family of enzymes that play a primary role in the metabolism of a wide variety of drugs. 2R,6R-hydroxynorketamine was investigated for its potential to inhibit the action of 7 key CYP enzymes using an inhibition assay measuring reduction in the formation of metabolites compared to control.
# [5] = target: T1, CYP1A2 (Homo sapiens, UniProt P05177); assay: CYP inhibition assay CYP1A2; type: in vitro ADME
# T1 sequence (P05177 1-516): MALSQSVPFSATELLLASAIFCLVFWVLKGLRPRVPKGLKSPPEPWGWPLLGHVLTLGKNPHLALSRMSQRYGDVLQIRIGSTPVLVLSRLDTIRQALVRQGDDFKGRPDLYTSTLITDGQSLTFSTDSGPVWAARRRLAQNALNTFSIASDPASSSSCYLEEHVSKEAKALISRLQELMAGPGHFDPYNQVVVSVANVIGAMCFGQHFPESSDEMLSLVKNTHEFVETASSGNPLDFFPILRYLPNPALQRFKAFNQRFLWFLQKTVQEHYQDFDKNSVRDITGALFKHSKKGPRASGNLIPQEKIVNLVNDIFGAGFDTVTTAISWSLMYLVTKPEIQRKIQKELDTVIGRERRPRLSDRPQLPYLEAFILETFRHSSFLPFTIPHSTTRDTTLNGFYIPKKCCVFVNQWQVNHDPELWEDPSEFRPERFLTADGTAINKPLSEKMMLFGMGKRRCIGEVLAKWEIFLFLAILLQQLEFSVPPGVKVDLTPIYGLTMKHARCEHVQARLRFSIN
# Excerpt: as §1
# [6] = target: T2, CYP2B6 (Homo sapiens, UniProt P20813); assay: CYP inhibition assay CYP2B6; type: in vitro ADME
# T2 sequence (P20813 1-491): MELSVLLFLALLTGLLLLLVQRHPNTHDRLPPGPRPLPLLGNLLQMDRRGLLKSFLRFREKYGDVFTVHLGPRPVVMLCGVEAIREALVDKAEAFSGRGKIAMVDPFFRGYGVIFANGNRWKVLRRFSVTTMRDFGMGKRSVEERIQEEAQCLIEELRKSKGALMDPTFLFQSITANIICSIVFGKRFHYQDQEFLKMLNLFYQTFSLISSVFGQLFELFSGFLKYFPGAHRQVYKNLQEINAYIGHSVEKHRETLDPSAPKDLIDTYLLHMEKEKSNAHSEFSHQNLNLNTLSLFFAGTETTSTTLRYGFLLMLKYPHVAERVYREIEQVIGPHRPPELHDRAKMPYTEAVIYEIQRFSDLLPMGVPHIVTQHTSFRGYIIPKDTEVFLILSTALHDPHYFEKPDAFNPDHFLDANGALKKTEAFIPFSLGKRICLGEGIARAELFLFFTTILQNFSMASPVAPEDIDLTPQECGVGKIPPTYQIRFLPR
# Excerpt: as §1
# [7] = target: CYP2D6 (Homo sapiens, UniProt P10635); assay: CYP inhibition assay CYP2D6; type: in vitro ADME
# Excerpt: as §1
# [8] = system: α-amino-3-hydroxy-5-methyl-4-isoxazolepropionic acid receptor (AMPAR)-mediated currents; assay: In vitro electrophysiology, field excitatory postsynaptic potentials; conditions: estimated
# Experimental: The free (unbound) concentration of 2R,6R-hydroxynorketamine producing pharmacodynamics activity in the brain is estimated to be approximately 10 μM.
# [9] = target: dopamine transporter (Homo sapiens, UniProt Q01959); assay: Binding assay dopamine transporter
# Excerpt: (§2) 2R,6R-hydroxynorketamine was investigated for binding to monoamine oxidases A and B, monoamine transporters, as well as a variety of 5HT receptors.
# [10] = target: T3, CYP2C8 (Homo sapiens, UniProt P10632); assay: CYP inhibition assay CYP2C8; type: in vitro ADME
# T3 sequence (P10632 1-490): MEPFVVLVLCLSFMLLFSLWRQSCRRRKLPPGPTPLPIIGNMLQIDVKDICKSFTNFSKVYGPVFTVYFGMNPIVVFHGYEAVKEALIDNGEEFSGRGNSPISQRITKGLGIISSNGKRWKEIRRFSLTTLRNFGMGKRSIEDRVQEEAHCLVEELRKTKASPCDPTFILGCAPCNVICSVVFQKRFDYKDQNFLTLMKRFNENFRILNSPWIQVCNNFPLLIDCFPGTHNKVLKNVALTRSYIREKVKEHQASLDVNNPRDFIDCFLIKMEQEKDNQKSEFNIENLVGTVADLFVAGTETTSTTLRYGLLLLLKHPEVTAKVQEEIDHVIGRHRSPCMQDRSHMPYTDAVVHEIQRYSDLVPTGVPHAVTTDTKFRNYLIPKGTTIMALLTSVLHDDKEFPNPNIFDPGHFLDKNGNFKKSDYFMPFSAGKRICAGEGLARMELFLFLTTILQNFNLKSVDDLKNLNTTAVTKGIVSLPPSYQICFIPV
# Excerpt: as §1
# [11] = target: 5-HT transporter (Homo sapiens, UniProt P31645); assay: Binding assay 5-HT transporter
# Excerpt: as §2
# [12] = target: norepinephrine transporter (Homo sapiens, UniProt P23975); assay: Binding assay norepinephrine transporter
# Excerpt: as §2
# Sequence of CYP2D6 (P10635 whole entry): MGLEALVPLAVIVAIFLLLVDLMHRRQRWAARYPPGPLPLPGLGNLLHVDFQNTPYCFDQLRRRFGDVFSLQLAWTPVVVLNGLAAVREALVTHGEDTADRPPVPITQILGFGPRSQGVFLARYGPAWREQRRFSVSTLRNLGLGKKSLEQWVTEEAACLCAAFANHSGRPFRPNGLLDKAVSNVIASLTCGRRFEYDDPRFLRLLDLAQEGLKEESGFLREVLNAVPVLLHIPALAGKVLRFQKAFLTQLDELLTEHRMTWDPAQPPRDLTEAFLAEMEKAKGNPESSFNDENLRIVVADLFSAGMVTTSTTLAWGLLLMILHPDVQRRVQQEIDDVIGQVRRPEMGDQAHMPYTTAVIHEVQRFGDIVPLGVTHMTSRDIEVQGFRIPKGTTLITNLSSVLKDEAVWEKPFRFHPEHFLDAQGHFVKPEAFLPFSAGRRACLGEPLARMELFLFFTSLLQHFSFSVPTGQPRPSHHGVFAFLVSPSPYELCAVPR
# Sequence of CYP2C19 (P33261 whole entry): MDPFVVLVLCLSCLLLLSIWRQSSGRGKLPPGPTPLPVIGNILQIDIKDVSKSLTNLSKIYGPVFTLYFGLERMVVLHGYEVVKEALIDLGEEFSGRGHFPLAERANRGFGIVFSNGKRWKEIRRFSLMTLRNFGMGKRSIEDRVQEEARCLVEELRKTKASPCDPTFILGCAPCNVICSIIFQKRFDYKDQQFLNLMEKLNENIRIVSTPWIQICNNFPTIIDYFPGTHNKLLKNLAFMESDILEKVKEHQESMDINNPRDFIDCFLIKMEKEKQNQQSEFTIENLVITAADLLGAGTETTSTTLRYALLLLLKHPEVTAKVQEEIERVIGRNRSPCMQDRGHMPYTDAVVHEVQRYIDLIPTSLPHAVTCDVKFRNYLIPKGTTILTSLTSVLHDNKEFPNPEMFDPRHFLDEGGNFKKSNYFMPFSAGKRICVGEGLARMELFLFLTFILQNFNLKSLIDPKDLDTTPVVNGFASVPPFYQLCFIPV
# Sequence of norepinephrine transporter (P23975 whole entry, species assumed): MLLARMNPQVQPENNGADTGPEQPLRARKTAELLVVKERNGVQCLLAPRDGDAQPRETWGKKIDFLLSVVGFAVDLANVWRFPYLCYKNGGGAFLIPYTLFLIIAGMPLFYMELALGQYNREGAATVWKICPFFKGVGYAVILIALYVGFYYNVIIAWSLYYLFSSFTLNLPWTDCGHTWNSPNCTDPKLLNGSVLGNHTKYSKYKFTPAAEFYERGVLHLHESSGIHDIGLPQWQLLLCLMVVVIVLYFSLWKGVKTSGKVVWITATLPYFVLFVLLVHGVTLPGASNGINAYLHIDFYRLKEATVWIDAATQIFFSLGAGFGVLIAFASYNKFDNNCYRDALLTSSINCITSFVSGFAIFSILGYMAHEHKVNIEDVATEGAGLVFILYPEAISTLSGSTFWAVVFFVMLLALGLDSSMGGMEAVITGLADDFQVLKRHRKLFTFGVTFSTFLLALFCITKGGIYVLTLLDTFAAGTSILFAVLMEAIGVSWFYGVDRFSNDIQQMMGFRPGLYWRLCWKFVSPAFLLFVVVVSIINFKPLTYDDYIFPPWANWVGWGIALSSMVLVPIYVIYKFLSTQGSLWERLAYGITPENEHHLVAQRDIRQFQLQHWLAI
# Sequence of 5-HT transporter (P31645 whole entry, species assumed): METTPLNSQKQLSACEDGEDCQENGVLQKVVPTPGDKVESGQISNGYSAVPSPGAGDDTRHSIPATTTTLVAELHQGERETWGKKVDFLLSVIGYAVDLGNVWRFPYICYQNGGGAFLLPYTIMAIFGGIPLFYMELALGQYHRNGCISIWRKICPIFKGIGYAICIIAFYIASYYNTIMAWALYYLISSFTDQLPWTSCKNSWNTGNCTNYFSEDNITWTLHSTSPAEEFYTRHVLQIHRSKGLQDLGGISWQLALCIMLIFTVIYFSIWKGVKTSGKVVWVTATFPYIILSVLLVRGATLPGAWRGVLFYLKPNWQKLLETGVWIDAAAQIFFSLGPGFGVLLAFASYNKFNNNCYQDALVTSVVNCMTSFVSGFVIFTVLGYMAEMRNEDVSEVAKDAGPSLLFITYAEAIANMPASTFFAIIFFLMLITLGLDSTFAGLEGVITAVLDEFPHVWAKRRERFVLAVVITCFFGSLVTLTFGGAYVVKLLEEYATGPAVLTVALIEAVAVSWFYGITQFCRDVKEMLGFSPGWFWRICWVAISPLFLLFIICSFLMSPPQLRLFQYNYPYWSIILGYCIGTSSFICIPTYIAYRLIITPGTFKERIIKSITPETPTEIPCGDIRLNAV
# Sequence of dopamine transporter (Q01959 whole entry): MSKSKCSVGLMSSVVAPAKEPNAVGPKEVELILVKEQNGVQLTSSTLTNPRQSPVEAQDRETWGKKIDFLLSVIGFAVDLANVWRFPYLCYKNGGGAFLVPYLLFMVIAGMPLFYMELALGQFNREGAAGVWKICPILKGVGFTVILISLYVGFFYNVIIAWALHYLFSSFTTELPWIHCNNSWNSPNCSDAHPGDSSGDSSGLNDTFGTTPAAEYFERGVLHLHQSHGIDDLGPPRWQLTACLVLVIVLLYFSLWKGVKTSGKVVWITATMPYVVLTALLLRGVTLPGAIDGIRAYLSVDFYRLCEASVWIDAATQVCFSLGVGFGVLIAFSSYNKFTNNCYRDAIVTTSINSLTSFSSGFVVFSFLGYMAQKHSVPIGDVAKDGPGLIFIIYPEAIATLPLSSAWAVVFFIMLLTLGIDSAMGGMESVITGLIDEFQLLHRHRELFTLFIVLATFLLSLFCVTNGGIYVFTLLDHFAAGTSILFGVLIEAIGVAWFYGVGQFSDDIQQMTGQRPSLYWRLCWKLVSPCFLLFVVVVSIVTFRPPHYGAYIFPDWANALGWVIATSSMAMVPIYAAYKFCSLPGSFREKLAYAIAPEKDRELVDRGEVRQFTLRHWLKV
smiles,measurement,setting,value
"N[C@@]1(c2ccccc2Cl)CCC[C@@H](O)C1=O [2R,6R-hydroxynorketamine, 2R,6R-2-(2-Chlorophenyl)-2-(amino)-6-hydroxycyclohexanone]",compatibility with dicalcium phosphate and microcrystalline cellulose,[1],compatibility
same,compatibility with lactose monohydrate (DSC),[1]; binary mix 1:2 API:Excipient,incompatible
same,oral bioavailability,[2]; high oral dose (>30 mg/kg),good
same,oral bioavailability,[2]; low oral dose,poor
same,hepatic clearance in humans (in words),[3],does not undergo hepatic clearance
same,inhibition of CYP2C19 (in words),[4],did not inhibit
same,% Inhibition,[4]; 0.4 μM,−2.01%
same,% Inhibition,[4]; 1 μM,−1.66%
same,% Inhibition,[4]; 4 μM,1.85%
same,% Inhibition,[4]; 10 μM,6.69%
same,% Inhibition,[4]; 40 μM,8.25%
same,% Inhibition,[4]; 100 μM,16.1%
same,IC50,[5],~100 µM
same,% Inhibition,[5]; 0.4 μM,7.55%
same,% Inhibition,[5]; 1 μM,8.80%
same,% Inhibition,[5]; 4 μM,11.7%
same,% Inhibition,[5]; 10 μM,19.3%
same,% Inhibition,[5]; 40 μM,24.8%
same,% Inhibition,[5]; 100 μM,48.6%
same,inhibition of CYP2B6 (in words),[6],did not inhibit
same,% Inhibition,[6]; 0.4 μM,6.03%
same,% Inhibition,[6]; 1 μM,10.1%
same,% Inhibition,[6]; 4 μM,10.6%
same,% Inhibition,[6]; 10 μM,14.4%
same,% Inhibition,[6]; 40 μM,14.8%
same,% Inhibition,[6]; 100 μM,16.7%
same,inhibition of CYP2D6 (in words),[7],did not inhibit
same,% Inhibition,[7]; 0.4 μM,3.16%
same,% Inhibition,[7]; 1 μM,6.65%
same,% Inhibition,[7]; 4 μM,11.5%
same,% Inhibition,[7]; 10 μM,9.41%
same,% Inhibition,[7]; 40 μM,11.2%
same,% Inhibition,[7]; 100 μM,5.73%
same,"free (unbound) concentration producing pharmacodynamics activity in the brain, sufficient to increase fEPSPs",[8],approximately 10 μM
same,% Inhibition of Control Specific Binding,[9],11%
same,% of Control Specific Binding,[9],87.2%
same,inhibition of CYP2C8 (in words),[10],did not inhibit
same,% Inhibition,[10]; 0.4 μM,5.63%
same,% Inhibition,[10]; 1 μM,4.91%
same,% Inhibition,[10]; 4 μM,12.5%
same,% Inhibition,[10]; 10 μM,8.33%
same,% Inhibition,[10]; 40 μM,8.35%
same,% Inhibition,[10]; 100 μM,2.08%
same,% Inhibition of Control Specific Binding,[11],2%
same,% of Control Specific Binding,[11],102.0%
same,% Inhibition of Control Specific Binding,[12],−16%
same,% of Control Specific Binding,[12],117.6%
